Measurements published in article PMC9250534, “Synthesis and direct assay of large macrocycle diversities by combinatorial late-stage modification at picomole scale” (Nature Communications, 2022).
“And” between values parts separate entries of the source, which are not always exact repeats. Equal entries are not always repeated. Where two headings read alike, the source gives them in different places.

Experiments:
[1] = biological target: T1, MDM2 (Homo sapiens, UniProt Q00987); test: MDM2 binding (FP53 displacement) by HPLC fractions of resynthesized hit reactions
T1 sequence (Q00987 whole entry): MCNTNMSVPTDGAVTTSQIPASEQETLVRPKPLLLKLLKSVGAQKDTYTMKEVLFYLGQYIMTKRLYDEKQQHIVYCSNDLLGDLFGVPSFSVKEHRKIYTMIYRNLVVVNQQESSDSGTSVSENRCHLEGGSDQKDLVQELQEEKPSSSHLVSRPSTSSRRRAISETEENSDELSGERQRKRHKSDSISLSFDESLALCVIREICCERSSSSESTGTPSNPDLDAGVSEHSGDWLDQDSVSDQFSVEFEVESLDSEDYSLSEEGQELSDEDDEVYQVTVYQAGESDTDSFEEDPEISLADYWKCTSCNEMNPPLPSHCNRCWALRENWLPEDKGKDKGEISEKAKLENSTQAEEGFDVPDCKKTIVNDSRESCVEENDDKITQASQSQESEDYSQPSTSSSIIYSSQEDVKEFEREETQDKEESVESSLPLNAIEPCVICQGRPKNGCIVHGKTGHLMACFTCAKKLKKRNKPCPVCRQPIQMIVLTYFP
Protocol: For hits from the MDM2 screen, reactions were performed in the same way but at a 50 nmol scale, and purified with the same method but a 10–80% gradient of solvent B and over 22 min. Fractions were lyophilized and dissolved in 40 μL of DMSO, 160 μL of water was added, and 5 μL of each fraction was transferred to a 384-well plate (Nunc, 264705), and 15 μL of premixed MDM2/FP53 peptide were added (final concentrations: 1.2 μM MDM2, 50 nM FP53, 5% DMSO).

[2] = biological target: T1, MDM2; test: IC50 of purified MDM2-binding macrocycles, fluorescence polarization competition with FP53; settings: for IC50: HPLC-purified macrocycle, FP displacement of fluorescent reporter peptide; for displacement of fluorescent peptide probe from MDM2: HPLC-purified macrocycles, FP competition; for anisotropy: replicates 1-3
Protocol: Volumes of 5 μL of purified macrocycles (20 mM in DMSO) were serial diluted two-fold in 100% DMSO in a low dead-volume ECHO source plate. Using acoustic droplet transfer, 150 nL of each dilution was transferred to a 384 well low volume polystyrene plate (Nunc, 264705). […] Fluorescence anisotropy was measured as described above. The percentage of bound inhibitor was calculated using the following equation4 %boundinhibitor=N−X/N−P×100 where N is the average anisotropy of the DMSO controls, X is the anisotropy value obtained for each well, and P is the average anisotropy of the unbound probe. The IC50s were determined by plotting the percent of bound inhibitor against the logarithm of the corresponding macrocycle concentration, and the curves were fitted in GraphPad Prism 6 as described above.

[3] = biological target: T1, MDM2; test: MDM2 binding screen of Libraries 3 and 4: displacement of fluorescent probe F-M8 at 750 nM macrocycle; settings: 750 nM macrocycle; crude reaction; probe F-M8
Outline: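 Cyclic peptide scaffolds were acylated in DMSO with carboxylic acids (20 equiv.), HBTU and DABCO for 6 h at room temperature. Reactions were quenched overnight in 100 mM Tris-Cl pH 7.4, 0.01% Tween20. The fluorescein conjugate was also competed with nutlin-3a.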

[4] = HPLC Fraction 1 of acylation reaction
[5] = HPLC Fraction 2 of acylation reaction
[6] = HPLC Fraction 3 of acylation reaction
[7] = HPLC Fraction 4 of acylation reaction
[8] = HPLC Fraction 5 of acylation reaction
[9] = HPLC Fraction 6 of acylation reaction
[10] = HPLC Fraction 7 of acylation reaction
[11] = HPLC Fraction 8 of acylation reaction
[12] = HPLC Fraction 9 of acylation reaction
[13] = HPLC Fraction 10 of acylation reaction
[14] = HPLC Fraction 11 of acylation reaction
[15] = HPLC Fraction 12 of acylation reaction
[16] = HPLC Fraction 13 of acylation reaction
[17] = HPLC Fraction 14 of acylation reaction
[18] = HPLC Fraction 15 of acylation reaction
[19] = HPLC Fraction 16 of acylation reaction
[20] = HPLC Fraction 17 of acylation reaction
[21] = HPLC Fraction 18 of acylation reaction
[22] = HPLC Fraction 19 of acylation reaction
[23] = HPLC Fraction 20 of acylation reaction
[24] = average of 3 replicates, read-out: IC50 Average
[25] = replicate 1, read-out: IC50 Replicate 1
[26] = replicate 2, read-out: IC50 Replicate 2
[27] = replicate 3, read-out: IC50 Replicate 3

O=C(NC[C@@H]1NC(=O)[C@H]2CCCN(C2)C(=O)CCSSCCNC(=O)[C@H](Cc2c[nH]c3ccccc23)NC1=O)c1ccc(Cl)cc1 [M7]
Fraction bound (fraction fluorescent probe displaced) [1, 4]: 0.06
Fraction bound (fraction fluorescent probe displaced) [1, 5]: 0.33
Fraction bound (fraction fluorescent probe displaced) [1, 6]: 0.08
Fraction bound (fraction fluorescent probe displaced) [1, 7]: -0.000869
Fraction bound (fraction fluorescent probe displaced) [1, 8]: -0.0216
Fraction bound (fraction fluorescent probe displaced) [1, 9]: 0.02
Fraction bound (fraction fluorescent probe displaced) [1, 10]: 0.02
Fraction bound (fraction fluorescent probe displaced) [1, 11]: 0.02
Fraction bound (fraction fluorescent probe displaced) [1, 12]: 0.02
Fraction bound (fraction fluorescent probe displaced) [1, 13]: 0.08
Fraction bound (fraction fluorescent probe displaced) [1, 14]: -0.000869
Fraction bound (fraction fluorescent probe displaced) [1, 15]: -0.06
Fraction bound (fraction fluorescent probe displaced) [1, 16]: -0.0422
Fraction bound (fraction fluorescent probe displaced) [1, 17]: 0.29
Fraction bound (fraction fluorescent probe displaced) [1, 18]: -0.0216
Fraction bound (fraction fluorescent probe displaced) [1, 19]: -0.10
Fraction bound (fraction fluorescent probe displaced) [1, 20]: -0.10
Fraction bound (fraction fluorescent probe displaced) [1, 21]: -0.15
Fraction bound (fraction fluorescent probe displaced) [1, 22]: -0.25
Fraction bound (fraction fluorescent probe displaced) [1, 23]: -0.21
IC50 [2, 24]: 3700 nM
IC50 [2, 25]: 3800 nM
IC50 [2, 26]: 2000 nM
IC50 [2, 27]: 5300 nM
displacement of fluorescent peptide probe from MDM2 [2]: efficiently displaced
anisotropy ([2]; Log[Macrocycle] M -4.0): 39 and 34 and 33
anisotropy ([2]; Log[Macrocycle] M -4.3): 47 and 37 and 40
anisotropy ([2]; Log[Macrocycle] M -4.6): 50 and 42 and 45
anisotropy ([2]; Log[Macrocycle] M -4.9): 54 and 48 and 49
anisotropy ([2]; Log[Macrocycle] M -5.2): 60 and 47 and 53
anisotropy ([2]; Log[Macrocycle] M -5.5): 68 and 53 and 61
anisotropy ([2]; Log[Macrocycle] M -5.8): 73 and 55 and 63
anisotropy ([2]; Log[Macrocycle] M -6.1): 81 and 61 and 69
anisotropy ([2]; Log[Macrocycle] M -6.4): 87 and 68 and 75
anisotropy ([2]; Log[Macrocycle] M -6.7): 89 and 72 and 77
anisotropy ([2]; Log[Macrocycle] M -7.0): 92 and 75 and 82
anisotropy ([2]; Log[Macrocycle] M -7.3): 92 and 72 and 85
anisotropy ([2]; Log[Macrocycle] M -7.6): 97 and 81 and 87
anisotropy ([2]; Log[Macrocycle] M -7.9): 94 and 83 and 85
anisotropy ([2]; Log[Macrocycle] M -8.2): 94 and 79 and 89
anisotropy ([2]; Log[Macrocycle] M -8.5): 96 and 78 and 86

O=C(/C=C/c1ccccc1)NC[C@@H]1NC(=O)[C@H]2CCCN(C2)C(=O)CCSSCCNC(=O)[C@H](Cc2c[nH]c3ccccc23)NC1=O [M8]
Fraction bound (fraction fluorescent probe displaced) [1, 4]: 0.08
Fraction bound (fraction fluorescent probe displaced) [1, 5]: 0.25
Fraction bound (fraction fluorescent probe displaced) [1, 6]: 0.02
Fraction bound (fraction fluorescent probe displaced) [1, 7]: -0.000869
Fraction bound (fraction fluorescent probe displaced) [1, 8]: -0.0422
Fraction bound (fraction fluorescent probe displaced) [1, 9]: -0.000869
Fraction bound (fraction fluorescent probe displaced) [1, 10]: 0.02
Fraction bound (fraction fluorescent probe displaced) [1, 11]: 0.02
Fraction bound (fraction fluorescent probe displaced) [1, 12]: 0.04
Fraction bound (fraction fluorescent probe displaced) [1, 13]: -0.0422
Fraction bound (fraction fluorescent probe displaced) [1, 14]: -0.0422
Fraction bound (fraction fluorescent probe displaced) [1, 15]: -0.0216
Fraction bound (fraction fluorescent probe displaced) [1, 16]: 0.37
Fraction bound (fraction fluorescent probe displaced) [1, 17]: 0.04
Fraction bound (fraction fluorescent probe displaced) [1, 18]: -0.13
Fraction bound (fraction fluorescent probe displaced) [1, 19]: -0.0216
Fraction bound (fraction fluorescent probe displaced) [1, 20]: -0.0216
Fraction bound (fraction fluorescent probe displaced) [1, 21]: -0.21
Fraction bound (fraction fluorescent probe displaced) [1, 22]: -0.17
Fraction bound (fraction fluorescent probe displaced) [1, 23]: -0.23
displacement of fluorescent probe from MDM2 [3]: 21%
IC50 [2, 24]: 900 nM
IC50 [2, 25]: 1000 nM
IC50 [2, 26]: 840 nM
IC50 [2, 27]: 860 nM
displacement of fluorescent peptide probe from MDM2 [2]: efficiently displaced
anisotropy ([2]; Log[Macrocycle] M -4.0): 50 and 44 and 45
anisotropy ([2]; Log[Macrocycle] M -4.3): 50 and 43 and 47
anisotropy ([2]; Log[Macrocycle] M -4.6): 52 and 45 and 51
anisotropy ([2]; Log[Macrocycle] M -4.9): 53 and 50 and 49
anisotropy ([2]; Log[Macrocycle] M -5.2): 59 and 42 and 53
anisotropy ([2]; Log[Macrocycle] M -5.5): 61 and 53 and 54
anisotropy ([2]; Log[Macrocycle] M -5.8): 67 and 55 and 59
anisotropy ([2]; Log[Macrocycle] M -6.1): 73 and 65 and 68
anisotropy ([2]; Log[Macrocycle] M -6.4): 80 and 68 and 73
anisotropy ([2]; Log[Macrocycle] M -6.7): 85 and 73 and 80
anisotropy ([2]; Log[Macrocycle] M -7.0): 87 (2×) and 82
anisotropy ([2]; Log[Macrocycle] M -7.3): 92 and 79 and 84
anisotropy ([2]; Log[Macrocycle] M -7.6): 94 and 80 and 85
anisotropy ([2]; Log[Macrocycle] M -7.9): 90 and 80 and 83
anisotropy ([2]; Log[Macrocycle] M -8.2): 94 and 77 and 85
anisotropy ([2]; Log[Macrocycle] M -8.5): 93 and 83 (2×)
